# Several values for one entry are separate records, joined by “and”; a condition that tells them apart may be missing. Equal entries are not always repeated.
# Key:
# [1] = system: Staphylococcus aureus; experiment: High dose gNO on Staphylococcus aureus plated on blood agar (Example 2); type: cell-based; conditions: 25,000 ppm gNO
# Excerpt: The purpose of this example is to observe the possibility of a novel bactericidal high dose (25,000 ppm) effect of gaseous nitric oxide (gNO) on an ATCC strain of Staphylococcus aureus plated on a blood agar media and determine a time effect of this dosage.
# A closed environment treatment chamber was used (see, “A direct nitric oxide gas delivery system for bacterial and mammalian cell cultures,” A. Ghaffari, D. H. Neil, A. Ardakani, J. Road, A. Ghahary, C. C. Miller. Nitric Oxide 12(3):129-140, 2005, herein incorporated by reference in its entirety). The following steps were performed: • 1. Calibrated the AeroNOx analyzer as per standard procedure. • 2. Calibrated the closed environment treatment chamber as per standard procedure. • 3. In a 50 mL tube, known Staphylococcus aureus bacteria in 10 mL Nutrient Broth was grown overnight or for about 12 hours in a shaker incubator. • 4. Measured optical density of grown Staphylococcus aureus using a spectrophotometer set at 600 nm. Used original nutrient broth as a blank. O.D. should be 1.0±10%. • 5. Turned on closed environment treatment chamber. • 6. Labeled three plates: Air, NO+1 minute, NO+3 minutes. • 7. Immersed a sterile cotton swab into the bacterial mixture in the 50 mL tube and shaked off excess liquid. • 8. Swiped one plate entirely in two directions with the swab. • 9. Repeated steps 7-8 using the cotton swab for the remaining […] plates. • 10. Using clean technique, utilized the device to administer either air or 25,000 ppm gNO at a fixed distance and flow towards the inoculated agar media. The agar plate was enclosed in an isolated plastic box with lid. A micropipette through which the gas flowed was affixed to the box lid. The box lid was sealed through the use of plastic wrap. The micropipette was in fluid communication with the gaseous mixing manifold in order to deliver the specified concentrations. • 11. Placed the three treated plates into the laboratory incubator. • 12. Removed plates after 8 hours and placed in a 37° C. incubator for 12-16 hours. • 13. After incubation, recorded results with digital pictures. • 14. Sealed plates with paraffin and refrigerated for storage.
# [2] = system: normal human bronchial epithelial cells (NHBE); experiment: Viability under 25,000 ppm gNO (Example 5), NHBE; type: cell-based; conditions: after 6 minutes, FIG. 8 A
# Method: (§1) After 24 hours, the A549, NCI-H23, NCI-H460, HTB-58, H2170 and H441 cells were treated with 25,000 ppm gNO or air (control) for 1 minute, 3 minutes, 6 minutes, 9 minutes, 10 minutes, 20 minutes, and 30 minutes. Immediately following treatment, the viability of the cells was determined using a colorimetric MTS (3-(4,5-dimethylthiazol-2-yl)-5-(3-carboxymethoxyphenyl)-2-(4-sulfophenyl)-2H-tetrazolium, inner salt) cell proliferation assay (commercially available as the CellTiter 960 Aqueous One Solution Cell Proliferation Assay (MTS) from Promega, Madison, Wis., USA) according to the manufacturer's protocol. Briefly, 20 mL of MTS solution was added to each well and the cells were incubated for 2 hours at 37° C. Absorbance was measured at 490 nm for each well using a micro-plate reader (commercially available from Dynex Technologies, Chantilly, Va., USA). The relative percentage of cell survival (viability) was calculated by dividing the absorbance of treated cells by that of control cells for each experimental time point.
# (§2) The purpose of this example is to illustrate the effects on normal human cell lines compared to the effects on cancerous cell lines of high-dosage gNO. The above study was repeated. […]
# [3] = system: H460-epithelial metastatic; large cell lung cancer cells; experiment: MTS proliferation assay, H460 cells under continuous gNO exposure (Example 1); type: cell-based, human
# Excerpt: (gNO) 200 ppm and 350 ppm compared to air (control) on the survival of a representative line of cancer cells. […] […] The plates then were removed and cell viability assessed by an MTS proliferation assay.
# When exposed to 350 ppm of gNO, however, cancer cell survival rates decrease dramatically.
# [4] = system: NCI-H460; experiment: MTS cell proliferation assay, 25,000 ppm gNO (Example 4), NCI-H460; type: cell-based, human
# Excerpt: The purpose of this example is to illustrate the tumorcidal activity of high-dosage gNO. We examined the cellular sensitivity to 25,000 ppm of gNO on 5 non-small cell lung cancer (NSCLC) cells lines by an MTS cell proliferation assay.
# Human lung cancer cell lines A549, NCI-H23, NCI-H460, HTB-58, H2170, and H441 (commercially available from American Type Culture Collection (“ATCC”), Manassas, Va.) were maintained in culture medium recommended by ATCC. All media were supplemented with 1% penicillin/streptomycin and 10% fetal bovine serum (commercially available from Invitrogen Gibco-BRL, Burlington, Ontario, Canada). […]
# as §1, with “Briefly, 20 mL of MTS solution was added to each well and the cells were incubated for 2 hours at 37° C.” left out, “The relative percentage of cell survival (viability) was calculated by dividing the absorbance of treated cells by that of control cells for each experimental time point.” left out
# [5] = system: squamous lung cancer cells (H2170); experiment: Viability under 25,000 ppm gNO (Example 5), H2170; type: cell-based; conditions: Homo sapiens, NCI-H2170, 0.1 h, after 6 minutes, FIG. 8 D
# Method: as §1, §2
# [6] = 350 ppm NO, 2 hours, RPMI medium
# [7] = 350 ppm NO, 2 hours, RPMI medium, listed as NO
smiles,measurement,setting,value
"[N]=O [gNO, nitric oxide]",effect on the growth of S. aureus,[1]; 1 minute,profound inhibitory effect
same,plate appearance after incubation (FIG. 4),[1]; 1 minute of exposure,the plate still shows signs of the S. aureus
same,effect on the growth of S. aureus,[1]; 3 minutes,possible cidal effect
same,plate appearance after incubation (FIG. 5),[1]; 3 minutes of exposure,the plate shows no signs of the S. aureus
same,viability,[2],less than 10%
same,Average,[3]; [6],0.158
same,Survival,[3]; [6],about 0%
same,Corrected Average,"[3]; 350 ppm NO, 2 hours, RPMI medium, blank subtracted",0.037
same,"MTS assay reading, individual wells",[3]; [7],0.193 and 0.147 and 0.152 and 0.154 (2×) and 0.156 and 0.172 and 0.157 and 0.149 (2×) and 0.165 and 0.155 and 0.158 and 0.145 and 0.184 and 0.143
same,Survival,[3]; [7],2%
same,survivability,"[3]; 350 ppm gNO, 24 hours continuous exposure, compared to air (control)",2%
same,IC50 (exposure time),[4],about 7 minutes
same,viability at 25000 ppm,[5],< 10%

# Source: patent publication US20070275100A1, “Use of gaseous nitric oxide as an anti-cancer agent” (priority 1998, published 2007)
